According to patent publication US7868135B2, “Compositions of lipopeptide antibiotic derivatives and methods of use thereof” (priority 2003, dated 2011):

Legend:
[1] = test system: Enterococcus faecalis (EFS0004); assay: Kill curve (bactericidal activity); format: cell-based; settings: FIG. 4A
Experimental: (§1) Another measure of the antimicrobial properties of the lipopeptide derivative compounds of this disclosure includes kill curve measurements. Kill curve experiments generally involve exposure of microorganisms to varying concentrations (e.g., multiples of a compound's MIC) of a test compound. The microorganisms may be in culture at log phase of growth or may be in a particular host tissue (e.g., lung) for up to 24 hours before exposure to a test compound. At selected time points, a sample of each culture or tissue can be analyzed for a titre of viable microorganisms, which is generally gauged against the time required for a compound to inhibit growth or kill bacteria.
(§2) Kill curve experiments were performed with both Staphylococcus aureus (SAU0017) and Enterococcus faecalis (EFS0004) organisms grown to log phase, which were suspended in cation-adjusted Mueller-Hinton broth with additional 0.625 mM Ca^+2 to a concentration of 10^6 CFU/mL. The cultures were then exposed to varying concentrations (i.e., multiples of the MIC) of a lipopeptide derivative and incubated at about 37° C. At selected time points from about 0 hours to about 24 hours, a sample of each culture was analyzed for a titre of viable organisms (CFU/ml), which was compared against the time required for each compound to kill bacteria.

[2] = test system: Staphylococcus aureus (SAU0017); assay: Kill curve (bactericidal activity); format: cell-based; settings: FIG. 5A
Experimental: as §1, §2

[3] = test system: S. aureus Smith (SAU0017, ATCC 19636); assay: Intraperitoneal murine model of protection against infection (ED50, Table 21); format: in vivo, Staphylococcus aureus; settings: Staphylococcus aureus, ATCC19636, read-out: ED50 in Mice, S. aureus (SAU0017)
Source text: (§3) A variety of in vivo models may be used to assess the antimicrobial properties of lipopeptide derivative compounds of this disclosure. For example, antimicrobial compounds of the instant disclosure may be tested for efficacy by measuring a compound's ability to protect a mouse against a microbial infection, such as an infection or disease caused by or related to Gram-positive bacteria, including Staphylococcus aureus, Streptococcus pneumoniae, and Enterococcus faecalis. […] A certain period after infection, mice are then individually treated, for example intravenously (i.v.), with a lipopeptide derivative of this disclosure.
(§4) Antimicrobial lipopeptide derivatives of the instant invention were tested for antimicrobial activity against Gram-positive bacteria in an intraperitoneal (i.p.) murine model (i.e., bacteria were injected i.p. and lipopeptide compounds were administered intravenously (i.v.)). Mice were infected with Staphylococcus aureus, Streptococcus pneumoniae, or Enterococcus faecalis, which were prepared as follows: S. aureus Smith (SAU0017, ATCC 19636) were grown in culture overnight on trypticase soy broth, harvested and then resuspended in fresh media containing 5% mucin (Sigma Chemical Co.); S. pneumoniae (SPN 0032, ATCC 10813) were grown overnight on blood agar plates and re-suspended in 0.9% sterile saline; and E. faecalis EFS0040 (clinical isolate) were grown overnight in culture on blood heart infusion broth, washed and resuspended in 0.9% saline and mixed with equal volume of sterile fecal rat extract. Swiss CD1 mice were each infected i.p. with bacteria at the following doses: S. aureus at 10^6 CFU/mouse; S. pneumoniae at 10^2 CFU/mouse; or E. faecalis at 10^7.5 CFU/mouse. […] The ED50 for each compound was calculated using the method of Reed and Meunch (Am. J. Hyg. 27: 493, 1938).

[4] = test system: S. pneumoniae (SPN 0032, ATCC 10813); assay: as above; format: in vivo, Streptococcus pneumoniae; settings: Streptococcus pneumoniae, ATCC10813, read-out: ED50 in Mice, S. pneumoniae (SPN0032)
Source text: as §3, §4

[5] = test system: E. faecalis EFS0040 (clinical isolate); assay: as above; format: in vivo, Enterococcus faecalis; settings: Enterococcus faecalis, read-out: ED50 in Mice, E. faecalis (EFS0040)
Source text: as §3, §4

[6] = test system: Streptococcus pneumoniae (SPN032, ATCC 1081); assay: Intranasal murine lung infection model; format: in vivo; settings: Streptococcus pneumoniae, ATCC1081, iv
Experimental: (§5) Other exemplary in vivo models of infection that may be used to assess, for example, the efficacy of an antimicrobial lipopeptide of the instant disclosure include the following: (A) a mouse (murine) model of lung infection (pneumonia) wherein the bacterial infection is administered intranasally (i.n.); (B) a murine thigh muscle model wherein the bacterial infection is administered intramuscularly (i.m.) in normal or neutropenic (immunocompromised) mice; and (C) a combination murine thigh muscle model (i.m. infection)/lung (i.n.) infection.
Antimicrobial lipopeptide derivatives of the instant invention were tested for antimicrobial activity against Gram-positive bacteria in an intranasal (i.n.) murine lung infection model (i.e., bacteria were innoculated i.n. and lipopeptide compounds were administered i.v.). Streptococcus pneumoniae (SPN032, ATCC 1081) were grown on 5% sheep blood agar plates for 24 h at 37° C., harvested and then resuspended in 0.9% saline. A group of eight Swiss CD1 mice were sedated with 2% isoflurane, and each was infected i.n. dropwise to the nares with 50 μl of the prepared bacterial inoculum (i.e., a dose of about 10^6 CFU/mouse). […] The ED50 (mg/kg) for each compound was calculated using the method of Reed and Meunch (Am. J. Hyg. 27: 493, 1938).

[7] = test system: Staphylococcus aureus (SAU0017); assay: Thigh infection model in neutropenic mice; format: in vivo; settings: Staphylococcus aureus, iv
Experimental: as §5

In the case of CN[C@H](CC(C)C)C(=O)N[C@H]1C(=O)N[C@@H](CC(N)=O)C(=O)N[C@H]2C(=O)N[C@H]3C(=O)N[C@H](C(=O)N[C@H](C(=O)O)c4cc(O)cc(O)c4-c4cc3ccc4O)[C@H](O)c3ccc(c(Cl)c3)Oc3cc2cc(c3O[C@@H]2O[C@H](CO)[C@@H](O)[C@H](O)[C@H]2O[C@H]2C[C@](C)(N)[C@H](O)[C@H](C)O2)Oc2ccc(cc2Cl)[C@H]1O [Vancomycin, reference compound], the “bactericidal or bacteriostatic in kill curve” value [1] is reported as “bacteriostatic”, the “bactericidal or bacteriostatic in kill curve” value [2] is reported as “bacteriostatic” and the ED50 [3] is reported as 0.9 to 2.4 mg/kg. For the same molecule, the ED50 [4] was 1.75 mg/kg, the ED50 [5] was 2 mg/kg and the ED50 [6] was 3 to 4.3 mg/kg. The ED50 [7] was 0.9 to 1.6 mg/kg.
